Legend:
[1] = test system: mutant strains of HIV-1; assay: microbe, parasite or virus in culture; assay type: cell-based; details: for EC50 / Slope: human PBM cells
Experimental: Cells and viruses. […] Antimicrobial Agents Chemother 1992;36(11): 2423-2431.
Cell pellets were washed, centrifuged, lysed and the proviral DNA extracted as previously described. Cytotoxicity of the compounds was determined using the Promega Cell Titer 96 dye uptake assay (Madison, Wis.) in 1-2 day PHA-stimulated PBM cells after 5 days in culture. The median effective concentration (EC50) and inhibitory concentration (IC50) were derived from the computer-generated median effect plot of the dose-effect data, as described previously. […]
The mutant viruses tested are as follows: xxBRU Pitt (wild type HIV-1; the backbone used to prepare the other site directed mutagens); M184V (methionine to valine change at codon 184); K65R (lysine to arginine change at codon 65); T215Y (threonine to tyrosine change at codon 215); M184V/T215Y (virus with both mutations); 215/41 (virus with two mutations (threonine to tyrosine change at codon 215) and M4 1L (methionine to leucine change at codon 41)); 4X AZT (virus with four mutations associated with AZT therapy); D67N (aspartic acid to asparagine change at codon 67); K70R lysine to arginine change at codon 70); T215Y (defined as above); K219Q (lysine to glutamine change at codon 219); 964 pre (virus from a patient before they were on AZT therapy, and thus AZT sensitive); and 964 post (virus taken from the same patient after they were on AZT therapy, and thus is AZT resistant).

[2] = U.S. Pat. No. 4,916,122; cited from earlier work

## [N-]=[N+]=N[C@H]1C[C@H](n2ccc(=O)[nH]c2=O)O[C@@H]1CO [CS-87, 3′-Azido-2′,3′-dideoxyuridine]
[1]
  FI^50 (fold increase EC50): 87
[1]; 4X AZT Pitt.
  EC50: 17000 nM
  Slope: 0.54
[1]; 215/4I Pitt.
  EC50: 19100 nM
  Slope: 0.95
[1]; AZT-Post (964 post)
  GFI^90 (fold increase EC90): 14
  EC50: 63000 nM
  Slope: 1.64
[1]; AZT-Sen. (964 pre)
  EC50: 11100 nM
  Slope: 0.65 ± 0.08
[1]; AZT-exposed virus
  sensitivity of AZT-exposed virus: deceased sensitivity
[1]; HIV-1/LAI
  EC50: 4700 nM
  Slope: 0.70
[1]; Human immunodeficiency virus 1, PBMC, 4X AZT Pitt.
  EC50: 300 nM
[1]; Human immunodeficiency virus 1, PBMC, 215/4I Pitt.
  EC50: 2100 nM
[1]; Human immunodeficiency virus 1, PBMC, AZT-Post (964 post)
  EC50: 16500 nM
[1]; Human immunodeficiency virus 1, PBMC, AZT-Sen. (964 pre)
  EC50: 400 nM
[1]; Human immunodeficiency virus 1, PBMC, HIV-1/LAI
  EC50: 200 nM
[1]; Human immunodeficiency virus 1, PBMC, K65R Pitt.
  EC50: 1100 nM
[1]; Human immunodeficiency virus 1, PBMC, L74V Pitt.
  EC50: 600 nM
[1]; Human immunodeficiency virus 1, PBMC, M184V Pitt.
  EC50: 600 nM
[1]; Human immunodeficiency virus 1, PBMC, M184V/T215Y Pitt.
  EC50: 1100 nM
[1]; Human immunodeficiency virus 1, PBMC, T215Y Pitt.
  EC50: 300 nM
[1]; Human immunodeficiency virus 1, PBMC, xxBRU Pitt. (wild type)
  EC50: 1100 nM
[1]; K65R Pitt.
  EC50: 12000 nM
  Slope: 0.92 ± 0.07
[1]; L74V Pitt.
  EC50: 3800 nM
  Slope: 1.18 ± 0.10
[1]; M184V Pitt.
  EC50: 2400 nM
  Slope: 1.55
[1]; M184V/T215Y Pitt.
  EC50: 5900 nM
  Slope: 1.40
[1]; T215Y Pitt.
  EC50: 2700 nM
  Slope: 1.00 ± 0.11
[1]; mutations at other than the 70 codon in the RT region
  sensitivity of site directed mutant viruses: remain sensitive
[1]; xxBRU Pitt. (wild type)
  EC50: 7300 nM
  Slope: 1.16
[2]
  toxicity compared with AZT: lower toxicity than AZT
